Measured values from patent US20250064057A1, “HARMFUL ALGAL BLOOM MITIGATION” (priority 2023, published 2025).

Tests used:
[1] = tested on: K. brevis; details: other studies; cited from earlier work
[2] = tested on: Karenia brevis; test: K. brevis cell abundance reduction (% R relative to control) in laboratory beakers/aquaria; assay type: cell-based; details: for mean % R in K. brevis cell abundance: beginning at 4 h

| Structure (SMILES) | effect on K. brevis cells [1] | mean % R in K. brevis cell abundance ([2]; 30 mg/L curcumin) [%] | mean % R in K. brevis cell abundance ([2]; 40 mg/L curcumin) [%] | reduction in K. brevis (best mitigation results) ([2]; 20-40 mg/L curcumin, T2-T6) | minimum concentration of curcumin for a reduction in K. brevis ([2]; laboratory studies) [mg/L] |
| --- | --- | --- | --- | --- | --- |
| CCCCOC(=O)c1ccccc1C(=O)OCCCC [dibutyl phthalate] | inhibit cell growth, decrease cell abundance, reduce chlorophyll a, and cause oxidative stress | – | – | – | – |
| COc1cc(/C=C/C(=O)CC(=O)/C=C/c2ccc(O)c(OC)c2)ccc1O [curcumin, (1E,6E)-1,7-Bis (4 (hydroxy-3-methoxyphenyl)-1,6-heptadiene-3,5-dione)] | – | > 90 | > 90 | 60-100% | 5 |
